Assay results reported in patent US20110136229A1, “Novel lectin” (National Taiwan University, priority 2009, published 2011).
≈ marks a conversion by molar mass, not a printed value.

Legend:
lectin of Carica papaya = experiment: Analysis of sugar-binding specificity (inhibition of lectin-induced hemagglutination by sugars, IC50); assay type: cell-based; conditions: lowest sugar concentration inhibiting 50% agglutinating activity; peak 1 diluted to HA titer 32
Procedure: The N-acetylgalactosamine, galactose, lactose, mannose, N-acetylglucosamine solutions were respectively added to the same volume of the samples, and the final sugar concentrations of the solutions were 3.1, 6.3, 12.5, 25, 50 and 100 mM, respectively. Upon well mixing, 50 μL of the mixture of the sample and the sugar solution was added to 50 μL of the human type O erythrocyte suspension (2×10^8 cells/mL) in the 96-well plate. Then, the 96-well plate was placed at 37 °C for 30 minutes, and the inhibition of the hemagglutination was observed. IC50 was defined as the lowest sugar concentration capable of inhibiting 50% agglutinating activity, wherein the inhibition area of the agglutination was at least half area of the bottom of the well.
In this embodiment, the fraction of the peak 1 (HA titer being 512) was diluted for 16 folds (HA titer being 32) for the analysis.

CPL = experiment: Hemagglutination inhibition assay on CPL by various sugars (MIC); assay type: cell-based, Carica papaya; conditions: minimum inhibitory concentration for inhibition of 16 hemagglutination titers, 2% human erythrocytes
Procedure: The HA titer of the purified lectin in the present invention was 512. The purified lectin was diluted to have the HA titer as 16, and then mixed with various sugar solution to test hemagglutination inhibition on CPL by various sugars. The results were illustrated in Table 3, wherein MIC indicated minimum inhibitory concentrations required for inhibition of 16 hemagglutination titers of the lectin of the present invention against 2% human 0-type erythrocytes, and all sugars are of D configuration.

Jurkat T lymphocytes [1] = experiment: IL-2 cytokine production in Jurkat T lymphocytes; assay type: cell-based, human; conditions: 10 μg/mL, 24 hr
Procedure: (§1) The purified CPL was added to respective 1.8 mL of Jurkat T lymphocytes (2×10^6), wherein the final concentrations of CPL were 24, 12, 6 and 3 μg/mL, respectively. After incubation for 24 hours, cell viability was measured by cell proliferation reagent, WST-1 (4-[3-(4-iodophenyl)-2-(4-nitrophenyl)-2H-5-tetrazolio]-1,3-benzene disulfonate), and the cytokine content in the incubation medium was analyzed. […] 24 μg/mL of CPL had inhibition effect on Jurkat T lymphocytes similar to that of 10 μg/mL of SBA, i.e., inhibiting 30% of viability after 24-hour incubation.
In the control group of Jurkat T lymphocyte without lectin added therein, the concentration of IL-2 upon 24 hr incubation was approximately or lower than 10 pg/mL. However, upon incubation with lectin, Jurkat T lymphocytes were induced to secrete IL-2 into the culture medium. The concentrations of IL-2 secreted from Jurkat T lymphocytes incubated with SBA and PHA (10 μg/mL) were 377±1 and 308±7 pg/mL, respectively. After Jurkat T lymphocytes were incubated with various concentrations of CPL for 24 hours, the concentration of IL-2 in the medium was proportional to the concentration of CPL. In the medium added with 3 μg/mL of CPL, the concentration of IL-2 was 9.7 pg/mL, which had no significant difference from the control group. In the medium added with 6 μg/mL of CPL, the concentration of IL-2 was 44.5 pg/mL. […]

Jurkat T lymphocytes [2] = assay type: cell-based, human; conditions: 1 μg/mL, 24 hours
Procedure: as §1, with “The purified CPL was added to respective 1.8 mL of Jurkat T lymphocytes (2×10^6), wherein the final concentrations of CPL were 24, 12, 6 and 3 μg/mL, respectively.” left out

[3] = tested on: CPL (Carica papaya lectin), purified lectin from papaya seeds; experiment: Interaction between CPL and immobilized GalNAc residues by surface plasmon resonance; assay type: binding; conditions: GalNAc-PAA-biotin polymers immobilized on SA chip, CPL 1.8-30 nM as analyte, Biacore T100
Procedure: (3) Interaction Between CPL and Immobilized GalNAc Residues by Surface Plasmon Resonance
GalNAc-PAA-biotin polymers were immobilized to a sensor chip modified with streptavidin (SA). The regeneration solution for the chip was 50 mM phosphate saline buffer (pH 7.0) containing 200 mM GalNAc. The concentrations of the purified CPL were adjusted to 30, 15, 7.5, 3.7 and 1.8 nM to be analytes, then subjected to the sensor chip immobilized with GalNAc-PAA-biotin polymers, and analyzed by Biacore T100 surface plasmon resonance analyzing machine. The obtained sensorgrams were analyzed and calculated by BIACORE T100 Evaluation software 2.0. After CPL was combined with GalNAc ligand on the sensor chip, the dissociation curve declined gradually. In other words, CPL had great affinity to GalNAc. […] (4) Immunomodulatory Effect of CPL on the Cytotoxicity and Induction of Cytokine Production in Jurkat T Lymphocytes

OC[C@H]1O[C@@H](O[C@H]2[C@H](O)[C@@H](O)C(O)O[C@@H]2CO)[C@H](O)[C@@H](O)[C@H]1O (stereo partly shown) [Lactose] was tested. Which IC50 (lectin of Carica papaya) did it give?
The IC50 was 6.3 mM.

What about the MIC (CPL) of the same molecule?
The MIC was 6.3 mM (≈ 2.16 mg/mL).

“SBA: soybean agglutinin, which specifically binds to GalNAc” was tested. Which “concentration of IL-2 in medium” value (Jurkat T lymphocytes [1]) did it give?
The value was 377 ± 1 pg/mL.

And the effect on viability (Jurkat T lymphocytes [2])?
Its effect on viability is “no significant effect”.

For O=C[C@H](O)[C@@H](O)[C@@H](O)[C@H](O)CO [Galactose], which IC50 (lectin of Carica papaya) is on record?
Its IC50 is over 100 mM.

And the MIC (CPL)?
Its MIC is over 100 mM.

Which “combination rate (Kon)” value [3] does the source give for CC(=O)N[C@H]1C(O)O[C@H](CO)[C@H](O)[C@@H]1O (stereo partly shown) [N-acetylgalactosamine] here?
Its value is 5.5×10^4 1/MS.

What about the “dissociation rate (Koff)” value [3] of the same molecule?
The value was 3×10^−4 1/S.

What about the Kd ([3]; read-out: dissociation constant (Kd)) of the same molecule?
The Kd was about 5.5 nM.

And the IC50 (lectin of Carica papaya)?
The IC50 was 6.3 mM.

And the MIC (CPL)?
Its MIC is 6.3 mM (≈ 1.39 mg/mL).

CC(=O)N[C@H]1C(O)O[C@H](CO)[C@@H](O)[C@@H]1O (stereo partly shown) [N-acetylglucosamine] was tested. Which IC50 (lectin of Carica papaya) did it give?
The IC50 was over 100 mM.

And the MIC (CPL; listed as GlcNAc)?
The MIC was over 100 mM.
